Measurements: ChEMBL document CHEMBL3885881, “DrugMatrix”

Species: Rattus norvegicus
Test: DrugMatrix - Regimen: Daily Repeat
Type: toxicity, organism-based, Sprague-Dawley
Parameters: regimen Daily Repeat, gender Male, age 6-8 weeks
Conditions: in vivo, po, route oral GAVAGE, […]; for ABSOLUTE BASOPHIL / BASOPHIL / NUCLEATED RED BLOOD CELLS / ABSOLUTE EOSINOPHIL / ABSOLUTE LYMPHOCYTE / ABSOLUTE MONOCYTE / ABSOLUTE SEGMENTED NEUTROPHIL / EOSINOPHIL / ERYTHROCYTE COUNT / HEMATOCRIT / HEMOGLOBIN / LEUKOCYTE COUNT / LYMPHOCYTE / MEAN CORPUSCULAR HEMOGLOBIN / MEAN CORPUSCULAR HEMOGLOBIN CONCENTRATION / MEAN CORPUSCULAR VOLUME / MONOCYTE / NEUTROPHIL / PLATELET COUNT: tissue Blood; for TOTAL BILIRUBIN / ALANINE AMINOTRANSFERASE / ALBUMIN / ALKALINE PHOSPHATASE / ASPARTATE AMINOTRANSFERASE / BLOOD UREA NITROGEN / CARBON DIOXIDE / CHLORIDE / CHOLESTEROL / CREATINE PHOSPHOKINASE / CREATININE / GLUCOSE / LACTATE DEHYDROGENASE / LIPASE / PHOSPHORUS / POTASSIUM / SODIUM / TOTAL PROTEIN / URIC ACID: tissue Plasma
[1] = 0 mg/kg, 72 h, dose level Control, time 3 day
[2] = 0 mg/kg, 120 h, dose level Control, time 5 day
[3] = 10 mg/kg, 72 h, dose level Low, time 3 day
[4] = 10 mg/kg, 120 h, dose level Low, time 5 day

Q: `COc1ccc2cc([C@H](C)C(=O)O)ccc2c1` [NAPROXEN] was tested. Which “ABSOLUTE BASOPHIL” value [1] did it give?
A: 0 CELLS/uL

Q: And the BASOPHIL [1]?
A: 0%

Q: And the “NUCLEATED RED BLOOD CELLS” value [1]?
A: 0 /100WBC

Q: And the “TOTAL BILIRUBIN” value [1]?
A: 0.2 mg/dL

Q: And the “ABSOLUTE BASOPHIL” value [2]?
A: 0 CELLS/uL

Q: And the BASOPHIL [2]?
A: 0%

Q: And the “ABSOLUTE BASOPHIL” value [3]?
A: 0 CELLS/uL

Q: And the “ABSOLUTE EOSINOPHIL” value [3]?
A: 0 CELLS/uL

Q: And the “ABSOLUTE LYMPHOCYTE” value [3]?
A: 16953.33 CELLS/uL

Q: What about the “ABSOLUTE MONOCYTE” value [3] of the same compound?
A: 484 CELLS/uL

Q: And the “ABSOLUTE SEGMENTED NEUTROPHIL” value [3]?
A: 1296 CELLS/uL

Q: What about the BASOPHIL [3] of the same compound?
A: 0%

Q: And the EOSINOPHIL [3]?
A: 0%

Q: And the “ERYTHROCYTE COUNT” value [3]?
A: 5.66 x10E6/uL

Q: And the HEMATOCRIT [3]?
A: 36.03%

Q: And the HEMOGLOBIN [3]?
A: 14.13 G/DL

Q: And the “LEUKOCYTE COUNT” value [3]?
A: 18.73 x10E3/uL

Q: And the LYMPHOCYTE [3]?
A: 90.67%

Q: What about the “MEAN CORPUSCULAR HEMOGLOBIN” value [3] of the same compound?
A: 25.03 pg

Q: What about the “MEAN CORPUSCULAR HEMOGLOBIN CONCENTRATION” value [3] of the same compound?
A: 39.23 G/DL

Q: And the “MEAN CORPUSCULAR VOLUME” value [3]?
A: 63.73 fL

Q: What about the MONOCYTE [3] of the same compound?
A: 2.67%

Q: What about the NEUTROPHIL [3] of the same compound?
A: 6.67%

Q: What about the “NUCLEATED RED BLOOD CELLS” value [3] of the same compound?
A: 0.33 /100WBC

Q: And the “PLATELET COUNT” value [3]?
A: 1140 x10E3/uL

Q: And the “ALANINE AMINOTRANSFERASE” value [3]?
A: 66 u/L

Q: What about the ALBUMIN [3] of the same compound?
A: 3.9 G/DL

Q: What about the “ALKALINE PHOSPHATASE” value [3] of the same compound?
A: 469.67 u/L

Q: What about the “ASPARTATE AMINOTRANSFERASE” value [3] of the same compound?
A: 84 u/L

Q: What about the “BLOOD UREA NITROGEN” value [3] of the same compound?
A: 9.67 mg/dL

Q: And the “CARBON DIOXIDE” value [3]?
A: 20.33 mmol/L

Q: And the CHLORIDE [3]?
A: 103.67 MEQ/L

Q: And the CHOLESTEROL [3]?
A: 54.33 mg/dL

Q: And the “CREATINE PHOSPHOKINASE” value [3]?
A: 295.33 u/L

Q: And the CREATININE [3]?
A: 0.19 mg/dL

Q: What about the GLUCOSE [3] of the same compound?
A: 187.67 mg/dL

Q: And the “LACTATE DEHYDROGENASE” value [3]?
A: 313.33 u/L

Q: What about the LIPASE [3] of the same compound?
A: 9.33 u/L

Q: And the PHOSPHORUS [3]?
A: 12.03 mg/dL

Q: And the POTASSIUM [3]?
A: 6.09 MEQ/L

Q: And the SODIUM [3]?
A: 143.67 MEQ/L

Q: And the “TOTAL BILIRUBIN” value [3]?
A: 0.1 mg/dL

Q: And the “TOTAL PROTEIN” value [3]?
A: 5.87 G/DL

Q: And the “URIC ACID” value [3]?
A: 2.03 mg/dL

Q: And the “ABSOLUTE BASOPHIL” value [4]?
A: 0 CELLS/uL

Q: What about the “ABSOLUTE EOSINOPHIL” value [4] of the same compound?
A: 321 CELLS/uL

Q: What about the “ABSOLUTE LYMPHOCYTE” value [4] of the same compound?
A: 16605.33 CELLS/uL

Q: What about the “ABSOLUTE MONOCYTE” value [4] of the same compound?
A: 680 CELLS/uL

Q: And the “ABSOLUTE SEGMENTED NEUTROPHIL” value [4]?
A: 1493.67 CELLS/uL

Q: And the BASOPHIL [4]?
A: 0%

Q: What about the EOSINOPHIL [4] of the same compound?
A: 2%

Q: What about the “ERYTHROCYTE COUNT” value [4] of the same compound?
A: 5.33 x10E6/uL

Q: And the HEMATOCRIT [4]?
A: 34.4%

Q: What about the HEMOGLOBIN [4] of the same compound?
A: 13.33 G/DL

Q: What about the “LEUKOCYTE COUNT” value [4] of the same compound?
A: 19.1 x10E3/uL

Q: What about the LYMPHOCYTE [4] of the same compound?
A: 86.33%

Q: What about the “MEAN CORPUSCULAR HEMOGLOBIN” value [4] of the same compound?
A: 25.23 pg

Q: What about the “MEAN CORPUSCULAR HEMOGLOBIN CONCENTRATION” value [4] of the same compound?
A: 38.8 G/DL

Q: And the “MEAN CORPUSCULAR VOLUME” value [4]?
A: 65 fL

Q: What about the MONOCYTE [4] of the same compound?
A: 3.67%

Q: And the NEUTROPHIL [4]?
A: 8%

Q: What about the “NUCLEATED RED BLOOD CELLS” value [4] of the same compound?
A: 0 /100WBC

Q: What about the “PLATELET COUNT” value [4] of the same compound?
A: 1322.33 x10E3/uL

Q: And the “ALANINE AMINOTRANSFERASE” value [4]?
A: 109.67 u/L

Q: What about the ALBUMIN [4] of the same compound?
A: 3.7 G/DL

Q: What about the “ALKALINE PHOSPHATASE” value [4] of the same compound?
A: 463.67 u/L

Q: What about the “ASPARTATE AMINOTRANSFERASE” value [4] of the same compound?
A: 145.33 u/L

Q: What about the “BLOOD UREA NITROGEN” value [4] of the same compound?
A: 8.33 mg/dL

Q: And the “CARBON DIOXIDE” value [4]?
A: 19.33 mmol/L

Q: And the CHLORIDE [4]?
A: 104 MEQ/L

Q: And the CHOLESTEROL [4]?
A: 40.33 mg/dL

Q: And the “CREATINE PHOSPHOKINASE” value [4]?
A: 1655.33 u/L

Q: What about the CREATININE [4] of the same compound?
A: 0.18 mg/dL

Q: And the GLUCOSE [4]?
A: 252 mg/dL

Q: What about the “LACTATE DEHYDROGENASE” value [4] of the same compound?
A: 400 u/L

Q: What about the LIPASE [4] of the same compound?
A: 9 u/L

Q: What about the PHOSPHORUS [4] of the same compound?
A: 14.07 mg/dL

Q: What about the POTASSIUM [4] of the same compound?
A: 6.26 MEQ/L

Q: What about the SODIUM [4] of the same compound?
A: 143.27 MEQ/L

Q: And the “TOTAL BILIRUBIN” value [4]?
A: 0.17 mg/dL

Q: And the “TOTAL PROTEIN” value [4]?
A: 5.4 G/DL

Q: And the “URIC ACID” value [4]?
A: 3.1 mg/dL
